From PubChem BioAssay (NCI)
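Five compound concentrations were applied to cells in 96-well plates for 48 hours; endpoints were derived by simple linear interpolation of the resulting dose-response curve. The concentration for 50% growth inhibition is given as GI50. TGI marks complete inhibition of growth.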

What was measured:
Assay in all cases: NCI anticancer screen, dose series, 48 h
SK-MEL-5 melanoma = system: SK-MEL-5 melanoma
MALME-3M melanoma = system: MALME-3M melanoma
TK-10 renal = system: TK-10 renal
HCT-116 colon = system: HCT-116 colon
SR leukemia = system: SR leukemia
MOLT-4 leukemia = system: MOLT-4 leukemia
786-0 renal = system: 786-0 renal
DU-145 prostate = system: DU-145 prostate
T-47D breast = system: T-47D breast
COLO 205 colon = system: COLO 205 colon
EKVX NSCLC = system: EKVX NSCLC
SNB-75 CNS = system: SNB-75 CNS
M14 melanoma = system: M14 melanoma
RPMI-8226 leukemia = system: RPMI-8226 leukemia
SNB-19 CNS = system: SNB-19 CNS
NCI-H23 lung = system: NCI-H23 lung
SW-620 colon = system: SW-620 colon
HOP-62 NSCLC = system: HOP-62 NSCLC
HOP-92 NSCLC = system: HOP-92 NSCLC
UACC-62 melanoma = system: UACC-62 melanoma
SF-295 CNS = system: SF-295 CNS
K-562 leukemia = system: K-562 leukemia
NCI-H460 lung = system: NCI-H460 lung
OVCAR-8 ovarian = system: OVCAR-8 ovarian
PC-3 prostate = system: PC-3 prostate
HL-60(TB) leukemia = system: HL-60(TB) leukemia
U251 CNS = system: U251 CNS
SF-268 CNS = system: SF-268 CNS
HCC-2998 colon = system: HCC-2998 colon
A498 renal = system: A498 renal
SK-OV-3 ovarian = system: SK-OV-3 ovarian
CCRF-CEM leukemia = system: CCRF-CEM leukemia
MDA-MB-435 = system: MDA-MB-435
CAKI-1 renal = system: CAKI-1 renal
BT-549 breast = system: BT-549 breast
HT29 colon = system: HT29 colon
MDA-MB-231 breast = system: MDA-MB-231 breast
KM12 colon = system: KM12 colon
MCF7 breast = system: MCF7 breast
SF-539 CNS = system: SF-539 CNS
NCI-H226 lung = system: NCI-H226 lung
NCI-H522 lung = system: NCI-H522 lung
HS 578T breast = system: HS 578T breast
RXF 393 renal = system: RXF 393 renal
SN12C renal = system: SN12C renal
A549 NSCLC = system: A549 NSCLC
IGROV1 ovarian = system: IGROV1 ovarian
OVCAR-5 ovarian = system: OVCAR-5 ovarian
SK-MEL-2 melanoma = system: SK-MEL-2 melanoma
LOX IMVI melanoma = system: LOX IMVI melanoma
OVCAR-3 ovarian = system: OVCAR-3 ovarian
OVCAR-4 ovarian = system: OVCAR-4 ovarian
NCI/ADR-RES ovarian = system: NCI/ADR-RES ovarian
UACC-257 melanoma = system: UACC-257 melanoma
HCT-15 colon = system: HCT-15 colon
UO-31 renal = system: UO-31 renal
SK-MEL-28 melanoma = system: SK-MEL-28 melanoma
ACHN renal = system: ACHN renal

`COc1cccc(/C=C/C(=O)c2cccc(Nc3nc(Nc4ccccc4)nc(Nc4ccccc4)n3)c2)c1` showed a GI50 (SK-MEL-5 melanoma) of 13 µM, a TGI (SK-MEL-5 melanoma) greater than 77.1 µM and a GI50 (MALME-3M melanoma) greater than 48.7 µM. For the same compound, the TGI (MALME-3M melanoma) was greater than 100 µM, the GI50 (TK-10 renal) was 41.5 µM and the TGI (TK-10 renal) was greater than 93.1 µM. For the same compound, the GI50 (HCT-116 colon) was 1.42 µM, the TGI (HCT-116 colon) was 2.93 µM and the GI50 (SR leukemia) was 1.89 µM. It also gave a TGI (SR leukemia) of 9.13 µM, a GI50 (MOLT-4 leukemia) of 3.86 µM and a TGI (MOLT-4 leukemia) of 26.3 µM. It also gave a GI50 (786-0 renal) of 18.6 µM, a TGI (786-0 renal) greater than 65.5 µM and a GI50 (DU-145 prostate) of 19.9 µM. The TGI (DU-145 prostate) was greater than 100 µM, the GI50 (T-47D breast) was 6.15 µM and the TGI (T-47D breast) was greater than 79.8 µM. For the same compound, the GI50 (COLO 205 colon) was 10.5 µM, the TGI (COLO 205 colon) was 42.3 µM and the GI50 (EKVX NSCLC) was greater than 20.2 µM. For the same compound, the TGI (EKVX NSCLC) was greater than 78.6 µM, the GI50 (SNB-75 CNS) was 11.8 µM and the TGI (SNB-75 CNS) was greater than 94.8 µM. It also gave a GI50 (M14 melanoma) of 19.3 µM, a TGI (M14 melanoma) greater than 72.2 µM and a GI50 (RPMI-8226 leukemia) of 1.78 µM. For the same compound, the TGI (RPMI-8226 leukemia) was 6.49 µM, the GI50 (SNB-19 CNS) was greater than 56.9 µM and the TGI (SNB-19 CNS) was greater than 100 µM. The GI50 (NCI-H23 lung) was 21.3 µM, the TGI (NCI-H23 lung) was greater than 100 µM and the GI50 (SW-620 colon) was 3.68 µM. The TGI (SW-620 colon) was greater than 48.3 µM, the GI50 (HOP-62 NSCLC) was greater than 46.9 µM and the TGI (HOP-62 NSCLC) was greater than 78.1 µM. For the same compound, the GI50 (HOP-92 NSCLC) was 1.24 µM, the TGI (HOP-92 NSCLC) was 50.5 µM and the GI50 (UACC-62 melanoma) was greater than 100 µM. The TGI (UACC-62 melanoma) was greater than 100 µM, the GI50 (SF-295 CNS) was 1.96 µM and the GI50 (K-562 leukemia) was 3.96 µM. The TGI (K-562 leukemia) was 45.8 µM, the GI50 (NCI-H460 lung) was 9.01 µM and the TGI (NCI-H460 lung) was greater than 61.8 µM. The GI50 (OVCAR-8 ovarian) was 9.91 µM, the TGI (OVCAR-8 ovarian) was greater than 100 µM and the GI50 (PC-3 prostate) was 5.21 µM. It also gave a TGI (PC-3 prostate) greater than 67.2 µM, a GI50 (HL-60(TB) leukemia) of 10.5 µM and a TGI (HL-60(TB) leukemia) of 43.6 µM. The GI50 (U251 CNS) was 9.5 µM, the TGI (U251 CNS) was greater than 73.8 µM and the GI50 (SF-268 CNS) was 20.9 µM. For the same compound, the TGI (SF-268 CNS) was greater than 89.9 µM, the GI50 (HCC-2998 colon) was 7.35 µM and the TGI (HCC-2998 colon) was 26.2 µM. It also gave a GI50 (A498 renal) of 6.04 µM, a TGI (A498 renal) of 17.7 µM and a GI50 (SK-OV-3 ovarian) greater than 78.5 µM. It also gave a TGI (SK-OV-3 ovarian) greater than 100 µM, a GI50 (CCRF-CEM leukemia) of 5.26 µM and a TGI (CCRF-CEM leukemia) of 45.5 µM. It also gave a GI50 (MDA-MB-435) of 14.5 µM, a TGI (MDA-MB-435) greater than 59.7 µM and a GI50 (CAKI-1 renal) greater than 22.4 µM. It also gave a TGI (CAKI-1 renal) greater than 60.8 µM, a GI50 (BT-549 breast) of 21.7 µM and a TGI (BT-549 breast) greater than 72.1 µM. For the same compound, the GI50 (HT29 colon) was 4.36 µM, the TGI (HT29 colon) was greater than 81.7 µM and the GI50 (MDA-MB-231 breast) was 32.7 µM. The TGI (MDA-MB-231 breast) was greater than 100 µM, the GI50 (KM12 colon) was 3.88 µM and the TGI (KM12 colon) was 18.3 µM. It also gave a GI50 (MCF7 breast) of 1.37 µM, a TGI (MCF7 breast) of 6.91 µM and a GI50 (SF-539 CNS) of 15.6 µM. The TGI (SF-539 CNS) was 34.4 µM, the GI50 (NCI-H226 lung) was 24.2 µM and the TGI (NCI-H226 lung) was greater than 67.9 µM. The GI50 (NCI-H522 lung) was 15.1 µM, the TGI (NCI-H522 lung) was greater than 100 µM and the GI50 (HS 578T breast) was 15.8 µM. It also gave a TGI (HS 578T breast) of 61.7 µM, a GI50 (RXF 393 renal) of 10.7 µM and a TGI (RXF 393 renal) of 35.6 µM. It also gave a GI50 (SN12C renal) of 48.5 µM, a TGI (SN12C renal) greater than 100 µM and a GI50 (A549 NSCLC) of 30.9 µM. For the same compound, the TGI (A549 NSCLC) was greater than 100 µM, the GI50 (IGROV1 ovarian) was 5.47 µM and the TGI (IGROV1 ovarian) was 33.2 µM. It also gave a GI50 (OVCAR-5 ovarian) of 26.8 µM, a TGI (OVCAR-5 ovarian) greater than 86.3 µM and a GI50 (SK-MEL-2 melanoma) greater than 33.4 µM. For the same compound, the TGI (SK-MEL-2 melanoma) was greater than 100 µM, the GI50 (LOX IMVI melanoma) was 7.04 µM and the TGI (LOX IMVI melanoma) was 21.3 µM. The GI50 (OVCAR-3 ovarian) was 9.16 µM, the TGI (OVCAR-3 ovarian) was 33.5 µM and the GI50 (OVCAR-4 ovarian) was 19.5 µM. The TGI (OVCAR-4 ovarian) was greater than 100 µM, the GI50 (NCI/ADR-RES ovarian) was 27.3 µM and the TGI (NCI/ADR-RES ovarian) was greater than 100 µM. For the same compound, the GI50 (UACC-257 melanoma) was greater than 56 µM, the TGI (UACC-257 melanoma) was greater than 100 µM and the GI50 (HCT-15 colon) was 9.59 µM. The TGI (HCT-15 colon) was greater than 100 µM, the GI50 (UO-31 renal) was 7.36 µM and the TGI (UO-31 renal) was 57.5 µM. The GI50 (SK-MEL-28 melanoma) was 20.8 µM, the TGI (SK-MEL-28 melanoma) was 56.2 µM and the GI50 (ACHN renal) was 67.3 µM. It also gave a TGI (ACHN renal) greater than 100 µM.
